Assay results reported in US20170304815A1, “Antimicrobial And Biological Active Polymer Composites And Related Methods, Materials and Devices” (IASIS MOLECULAR SCIENCES, priority 2014, published 2017).

Columns and labels:
[1] = unbound molecule; cited from earlier work
[2] = Thermogravimetric analysis, thermal stability; assay type: physicochemical; conditions: simple salt
Description: Amberlite IRP69 strong cation-exchange material was stirred in a minimal amount of deionized water and an excess (˜10-500 molar excess) silver nitrate was added and the mixture stirred by the addition of a mechanical stirrer for 60 minutes. […] The modified IRP69 was dried under vacuum at 130° C. and the material was milled with an IKA homogenizer and the resulting particles were put through a sieve with a 35 μm cutoff. The powder was dried under vacuum and used for incorporation within various polymer composite mixtures.
Thermal stability of a benzalkonium salt of IRP69 (IRP69-benzalkonium) was measured and compared to thermal stability of benzalkonium chloride (simple salt). […] (close to the optimal processing temperature polyethylene terephthalate), unexpectedly providing for stable incorporation of the subject biologically active materials within composites useful to create fibers, threads, woven textiles and fabrics incorporating these thermally demanding materials.

| Compound | susceptible to thermal degradation to p-chloroaniline above [1] | begins to decompose at (thermogravimetric profile) [2] |
| --- | --- | --- |
| [H]/N=C(\N/C(=N/[H])NCCCCCCNC(=N)NC(=N)Nc1ccc(Cl)cc1)Nc1ccc(Cl)cc1 [Chlorhexidine] | above 70 °C |  |
| benzalkonium chloride |  | about 200 °C |
